ChEMBL document CHEMBL1152576, “E-Combretastatin and E-resveratrol structural modifications: antimicrobial and cancer cell growth inhibitory beta-E-nitrostyrenes” (Bioorg Med Chem, 2009)
In brackets after ≈: the same amount, converted by molar mass. Activity calls are given as the source filed them. The calls are words filed in the database; no cut-off is given here.

Experiments:
[1] = test system: P388; assay: Cytotoxicity against mouse P388 cells after 48 hrs by sulforhodamine B assay; assay type: functional; conditions: P388, 48 h, read-out: ED50 (the source's name)
[2] = test system: BXPC-3; assay: Cytotoxicity against human BxPC3 cells after 48 hrs by sulforhodamine B assay; assay type: functional; conditions: BXPC-3, 48 h
[3] = test system: MCF7; assay: Cytotoxicity against human MCF7 cells after 48 hrs by sulforhodamine B assay; assay type: functional; conditions: MCF7, 48 h
[4] = test system: SF-295; assay: Cytotoxicity against human SF295 cells after 48 hrs by sulforhodamine B assay; assay type: functional; conditions: SF-295, 48 h
[5] = test system: SF-268; assay: Cytotoxicity against human SF268 cells after 48 hrs by sulforhodamine B assay; assay type: functional
[6] = test system: NCI-H460; assay: Cytotoxicity against human NCI-H460 cells after 48 hrs by sulforhodamine B assay; assay type: functional; conditions: NCI-H460, 48 h
[7] = test system: KM-20L2; assay: Cytotoxicity against human KM20L2 cells after 48 hrs by sulforhodamine B assay; assay type: functional; conditions: KM-20L2, 48 h
[8] = test system: DU-145; assay: Cytotoxicity against human DU145 cells after 48 hrs by sulforhodamine B assay; assay type: functional; conditions: DU-145, 48 h
[9] = test system: SK-MEL-5; assay: Cytotoxicity against human SK-MEL-5 cells after 48 hrs by sulforhodamine B assay; assay type: functional
[10] = test system: OVCAR-3; assay: Cytotoxicity against human OVCAR-3 cells after 48 hrs by sulforhodamine B assay; assay type: functional
[11] = test system: A498; assay: Cytotoxicity against human A498 cells after 48 hrs by sulforhodamine B assay; assay type: functional
[12] = Inhibition of tubulin polymerization
[13] = test system: Candida albicans; assay: Antimicrobial activity against Candida albicans ATCC 90028 assessed clear zone in inhibition per disk by CLSI disk diffusion susceptibility assay; assay type: functional
[14] = test system: Cryptococcus neoformans; assay: Antimicrobial activity against Cryptococcus neoformans ATCC 90112 assessed clear zone in inhibition per disk by CLSI disk diffusion susceptibility assay; assay type: functional
[15] = test system: Staphylococcus aureus; assay: Antimicrobial activity against Staphylococcus aureus ATCC 29213 assessed clear zone in inhibition per disk by CLSI disk diffusion susceptibility assay; assay type: functional
[16] = test system: Streptococcus pneumoniae; assay: Antimicrobial activity against Streptococcus pneumoniae ATCC 6303 assessed clear zone in inhibition per disk by CLSI disk diffusion susceptibility assay; assay type: functional
[17] = test system: Enterococcus faecalis; assay: Antimicrobial activity against Enterococcus faecalis ATCC 29212 assessed clear zone in inhibition per disk by CLSI disk diffusion susceptibility assay; assay type: functional
[18] = test system: Micrococcus luteus; assay: Antimicrobial activity against Micrococcus luteus Presque Isle 456 assessed clear zone in inhibition per disk by CLSI disk diffusion susceptibility assay; assay type: functional
[19] = test system: Stenotrophomonas maltophilia; assay: Antimicrobial activity against Stenotrophomonas maltophilia ATCC 13637 assessed clear zone in inhibition per disk by CLSI disk diffusion susceptibility assay; assay type: functional
[20] = test system: Escherichia coli; assay: Antimicrobial activity against Escherichia coli ATCC 25922 assessed clear zone in inhibition per disk by CLSI disk diffusion susceptibility assay; assay type: functional
[21] = test system: Enterobacter cloacae; assay: Antimicrobial activity against Enterobacter cloacae ATCC 13047 assessed clear zone in inhibition per disk by CLSI disk diffusion susceptibility assay; assay type: functional
[22] = test system: Neisseria gonorrhoeae; assay: Antimicrobial activity against Neisseria gonorrhoeae ATCC 49226 assessed clear zone of inhibition measured per disk by CLSI disk diffusion susceptibility assay; assay type: functional
[23] = test system: Candida albicans; assay: Antifungal activity against Candida albicans ATCC 90028 after 48 hrs by broth microdilution susceptibility assay; assay type: functional; conditions: ATCC 90028, 48 h
[24] = test system: Cryptococcus neoformans; assay: Antifungal activity against Cryptococcus neoformans ATCC 90112 after 72 hrs by broth microdilution susceptibility assay; assay type: functional; conditions: ATCC 90112, 72 h
[25] = test system: Staphylococcus aureus; assay: Antimicrobial activity against Staphylococcus aureus ATCC 29213 by broth microdilution susceptibility assay; assay type: functional
[26] = test system: Streptococcus pneumoniae; assay: Antimicrobial activity against Streptococcus pneumoniae ATCC 6303 by broth microdilution susceptibility assay; assay type: functional
[27] = test system: Enterococcus faecalis; assay: Antimicrobial activity against Enterococcus faecalis ATCC 29212 by broth microdilution susceptibility assay; assay type: functional
[28] = test system: Micrococcus luteus; assay: Antimicrobial activity against Micrococcus luteus Presque Isle 456 by broth microdilution susceptibility assay; assay type: functional
[29] = test system: Stenotrophomonas maltophilia; assay: Antimicrobial activity against Stenotrophomonas maltophilia ATCC 13637 by broth microdilution susceptibility assay; assay type: functional
[30] = test system: Escherichia coli; assay: Antimicrobial activity against Escherichia coli ATCC 25922 by broth microdilution susceptibility assay; assay type: functional
[31] = test system: Enterobacter cloacae; assay: Antimicrobial activity against Enterobacter cloacae ATCC 13047 by broth microdilution susceptibility assay; assay type: functional
[32] = test system: Neisseria gonorrhoeae; assay: Antimicrobial activity against Neisseria gonorrhoeae ATCC 49226 by broth microdilution susceptibility assay; assay type: functional
[33] = test system: Candida albicans; assay: Antifungal activity against Candida albicans ATCC 90028 after 24 hrs by broth microdilution susceptibility assay; assay type: functional; conditions: ATCC 90028, 24 h
[34] = test system: Staphylococcus aureus; assay: Antimicrobial activity against Staphylococcus aureus ATCC 29213 after 24 hrs by broth microdilution susceptibility assay; assay type: functional; conditions: ATCC 29213, 24 h
[35] = test system: Streptococcus pneumoniae; assay: Antimicrobial activity against Streptococcus pneumoniae ATCC 6303 after 24 hrs by broth microdilution susceptibility assay; assay type: functional; conditions: ATCC 6303, 24 h
[36] = test system: Enterococcus faecalis; assay: Antimicrobial activity against Enterococcus faecalis ATCC 29212 after 24 hrs by broth microdilution susceptibility assay; assay type: functional; conditions: ATCC 29212, 24 h
[37] = test system: Stenotrophomonas maltophilia; assay: Antimicrobial activity against Stenotrophomonas maltophilia ATCC 13637 after 24 hrs by broth microdilution susceptibility assay; assay type: functional; conditions: ATCC 13637, 24 h
[38] = test system: Escherichia coli; assay: Antimicrobial activity against Escherichia coli ATCC 25922 after 24 hrs by broth microdilution susceptibility assay; assay type: functional; conditions: ATCC 25922, 24 h
[39] = test system: Enterobacter cloacae; assay: Antimicrobial activity against Enterobacter cloacae ATCC 13047 after 24 hrs by broth microdilution susceptibility assay; assay type: functional; conditions: ATCC 13047, 24 h
[40] = test system: Neisseria gonorrhoeae; assay: Antimicrobial activity against Neisseria gonorrhoeae ATCC 49226 after 24 hrs by broth microdilution susceptibility assay; assay type: functional; conditions: ATCC 49226, 24 h

With `COc1ccccc1/C=C/[N+](=O)[O-]` the EC50 [1] was 0.51 µg/mL (≈ 2.85 µM), the GI50 [2] was 1.6 µg/mL (≈ 8.93 µM) and the GI50 [3] was 0.48 µg/mL (≈ 2.68 µM). The GI50 [4] was 1.7 µg/mL (≈ 9.49 µM), the GI50 [5] was “inactive” and the GI50 [6] was 1.7 µg/mL (≈ 9.49 µM). The GI50 [7] was 1.5 µg/mL (≈ 8.37 µM), the GI50 [8] was 1.5 µg/mL (≈ 8.37 µM) and the GI50 [9] was “inactive”. For the same molecule, the GI50 [10] was “inactive”, the GI50 [11] was “inactive” and the IC50 [12] was 7.4 µM. It also gave an MIC [13] of 1.56 µg, an MIC [14] of 0.78 µg and an MIC [15] of 6.25 µg. It also gave an MIC [16] of 25 µg, an MIC [17] of 0.78 µg and an MIC [18] of over 100 µg. For the same molecule, the MIC [19] was 12.5 µg, the MIC [20] was 50 µg and the MIC [21] was 25 µg. It also gave an MIC [22] of 0.78 µg, an MIC [23] of 8 µg/mL (≈ 44.6 µM) and an MIC [24] of over 64 µg/mL. The MIC [25] was 64 µg/mL (≈ 357 µM), the MIC [26] was 64 µg/mL (≈ 357 µM) and the MIC [27] was 64 µg/mL (≈ 357 µM). The MIC [28] was over 64 µg/mL, the MIC [29] was 32 µg/mL (≈ 179 µM) and the MIC [30] was 64 µg/mL (≈ 357 µM). It also gave an MIC [31] of 64 µg/mL (≈ 357 µM), an MIC [32] of 2 µg/mL (≈ 11.2 µM) and an MFC [33] of 16 µg/mL (≈ 89.3 µM). The MBC [34] was over 64 µg/mL, the MBC [35] was over 64 µg/mL and the MBC [36] was over 64 µg/mL. It also gave an MBC [37] of 64 µg/mL (≈ 357 µM), an MBC [38] of 64 µg/mL (≈ 357 µM) and an MBC [39] of over 64 µg/mL. For the same molecule, the MBC [40] was 2 µg/mL (≈ 11.2 µM).
